Key:
[1] = Cytotoxicity against human MIA PaCa cells by MTT assay; format: functional, cell-based
[2] = molecular target: cAMP-dependent protein kinase (PKA) (Homo sapiens, UniProt P22694+P17612+P22612); assay: Inhibition of PKA; format: protein assay
[3] = Oral bioavailability in mouse at 10 mg/kg, po; format: ADME, organism-based; details: in vivo
[4] = AUC in mouse at 10 mg/kg, po; format: ADME, organism-based; parameters: dose 10 mg/kg, route oral; details: plasma
[5] = Half life in mouse at 10 mg/kg, po; format: ADME, organism-based; parameters: dose 10 mg/kg, route oral; details: in vivo
[6] = Toxicity assessed as prolongation of action potential duration in dog purkinje fibres at 20 uM; format: tissue-based, Canis lupus familiaris, Purkinje fiber
[7] = Oral bioavailability in dog at 2.5 mg/kg, po; format: ADME, organism-based, Canis lupus familiaris; details: in vivo
[8] = Oral bioavailability in orally dosed rat; format: ADME, organism-based; details: in vivo
[9] = Hypotensive effect in dog femoral artery by femoral artery relaxation assay; format: functional, tissue-based, Canis lupus familiaris
[10] = Half life in mouse at 3 mg/kg, iv; format: ADME, organism-based; parameters: dose 3 mg/kg, route intravenous; details: in vivo
Mus musculus = assay: Toxicity assessed as decrease in MAP in mouse at 150 mg/kg, po; format: organism-based; parameters: dose 150 mg/kg, route oral; details: in vivo
[11] = molecular target: Voltage-gated inwardly rectifying potassium channel KCNH2 (Homo sapiens, UniProt Q12809); assay: Inhibition of hERG by patch clamp assay; format: toxicity
Canis familiaris [12] = assay: Cardiovascular toxicity assessed as induction of acute hypotension in dog at 25 mg/kg, iv by femoral artery relaxation assay; format: organism-based, Canis lupus familiaris; parameters: dose 25 mg/kg, route intravenous; details: in vivo
Canis familiaris [13] = assay: Toxicity assessed as decrease in MAP in dog infused at 0.48 mg/kg/min; format: organism-based, Canis lupus familiaris; details: in vivo

Voltage-gated inwardly rectifying potassium channel KCNH2, sequence (Q12809 whole entry): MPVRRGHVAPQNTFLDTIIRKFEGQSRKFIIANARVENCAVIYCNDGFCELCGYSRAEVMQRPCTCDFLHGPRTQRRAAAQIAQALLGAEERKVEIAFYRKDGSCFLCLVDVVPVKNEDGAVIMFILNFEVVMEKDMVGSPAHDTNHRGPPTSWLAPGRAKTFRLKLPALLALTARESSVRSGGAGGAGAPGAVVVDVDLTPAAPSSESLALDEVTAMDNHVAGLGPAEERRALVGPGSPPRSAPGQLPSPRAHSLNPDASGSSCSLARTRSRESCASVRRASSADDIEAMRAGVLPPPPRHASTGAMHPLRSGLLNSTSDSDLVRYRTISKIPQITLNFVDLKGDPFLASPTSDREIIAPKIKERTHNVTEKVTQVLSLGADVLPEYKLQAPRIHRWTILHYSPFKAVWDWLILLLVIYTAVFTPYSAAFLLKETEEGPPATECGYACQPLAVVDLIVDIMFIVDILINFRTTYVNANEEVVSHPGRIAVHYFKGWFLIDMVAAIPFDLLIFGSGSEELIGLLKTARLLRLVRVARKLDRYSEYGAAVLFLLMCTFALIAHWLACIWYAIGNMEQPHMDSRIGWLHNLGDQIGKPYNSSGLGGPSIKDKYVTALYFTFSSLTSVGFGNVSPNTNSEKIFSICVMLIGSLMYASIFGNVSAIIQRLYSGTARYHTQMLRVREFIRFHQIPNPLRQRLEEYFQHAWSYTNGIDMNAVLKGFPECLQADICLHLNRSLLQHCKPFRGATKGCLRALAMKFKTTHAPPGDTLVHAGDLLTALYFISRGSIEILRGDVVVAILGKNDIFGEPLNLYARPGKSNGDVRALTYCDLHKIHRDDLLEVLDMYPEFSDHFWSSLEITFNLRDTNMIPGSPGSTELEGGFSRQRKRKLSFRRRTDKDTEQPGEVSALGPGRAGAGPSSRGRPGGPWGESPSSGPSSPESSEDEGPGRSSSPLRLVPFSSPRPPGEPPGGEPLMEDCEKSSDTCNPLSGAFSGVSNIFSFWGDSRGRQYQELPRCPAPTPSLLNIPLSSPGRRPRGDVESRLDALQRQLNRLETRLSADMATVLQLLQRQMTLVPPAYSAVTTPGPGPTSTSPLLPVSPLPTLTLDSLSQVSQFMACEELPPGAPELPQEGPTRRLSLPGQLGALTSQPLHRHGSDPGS

| Structure (SMILES) | EC50 [1] | also measured |
| --- | --- | --- |
| Cc1n[nH]c2ccc(-c3cncc(OC[C@@H](N)Cc4ccccc4OC(F)(F)F)c3)cc12 | 230 nM |  |
| COc1ccc(F)cc1C[C@H](N)COc1cncc(-c2ccc3[nH]nc(C)c3c2)c1 | 230 nM |  |
| Cc1n[nH]c2ccc(-c3cncc(OC[C@@H](N)Cc4cccc(C(F)(F)F)c4)c3)cc12 | 600 nM | IC50 [2]: 5 nM |
| Cc1n[nH]c2ccc(-c3cncc(OC[C@@H](N)Cc4ccc(F)c(C(F)(F)F)c4)c3)cc12 | 600 nM |  |
| Cc1n[nH]c2ccc(-c3cncc(OC[C@@H](N)Cc4ccc5c(c4)OC(F)(F)C(F)(F)O5)c3)cc12 | 3700 nM |  |
| Cc1n[nH]c2ccc(-c3cncc(OC[C@@H](N)Cc4cccc(OCC5CCNCC5)c4)c3)cc12 | 250 nM |  |
| Cc1n[nH]c2ccc(-c3cncc(OC[C@@H](N)Cc4cccc(OCC5CCCCC5)c4)c3)cc12 | 16500 nM |  |
| Cc1n[nH]c2ccc(-c3cncc(OC[C@@H](N)Cc4cccc(OCC5CCN(C)CC5)c4)c3)cc12 | 1250 nM |  |
| Cc1n[nH]c2ccc(-c3cncc(OC[C@@H](N)Cc4cccc(OCCN)c4)c3)cc12 | 4800 nM |  |
| N[C@H](COc1cncc(-c2cc3cn[nH]c3cn2)c1)Cc1cccc(C(F)(F)F)c1 | 2390 nM | IC50 [2]: 78 nM |
| Cc1n[nH]c2cnc(-c3cncc(OC[C@@H](N)Cc4cccc(C(F)(F)F)c4)c3)cc12 | 370 nM | bioavailability [3]: 25%; AUC [4]: 1.7 µM·h; IC50 [2]: 13 nM; half-life [5]: 1.84 h; Activity [6]: -4% |
| Cc1cc(C[C@H](N)COc2cncc(-c3ccc4[nH]nc(C)c4c3)c2)ccc1Br | 1260 nM |  |
| Cc1ccc(C[C@H](N)COc2cncc(-c3ccc4[nH]nc(C)c4c3)c2)cc1F | 330 nM |  |
| Cc1cc(C)c(C[C@H](N)COc2cncc(-c3ccc4[nH]nc(C)c4c3)c2)c(C)c1 | 1610 nM |  |
| Cc1n[nH]c2ccc(-c3cncc(OC[C@@H](N)Cc4cccc(OC(F)(F)F)c4)c3)cc12 | 830 nM |  |
| Cc1n[nH]c2ccc(-c3cncc(OC[C@@H](N)Cc4cc(C(F)(F)F)ccc4F)c3)cc12 | 970 nM |  |
| Cc1n[nH]c2ccc(-c3cncc(OC[C@@H](N)Cc4ccc(C(F)(F)F)cc4F)c3)cc12 | 2900 nM |  |
| Cc1n[nH]c2ccc(-c3cncc(OC[C@@H](N)Cc4ccc(OC(F)(F)F)cc4)c3)cc12 | 1700 nM |  |
| Cc1n[nH]c2ccc(-c3cncc(OC[C@@H](N)Cc4ccc5c(c4)OCO5)c3)cc12 | 580 nM |  |
| Cc1n[nH]c2ccc(-c3cncc(OC[C@@H](N)Cc4cccc5c4OC(F)(F)O5)c3)cc12 | 680 nM |  |
| Cc1n[nH]c2ccc(-c3cncc(OC[C@@H](N)Cc4ccc(Br)cc4F)c3)cc12 | 900 nM |  |
| Cc1n[nH]c2ccc(-c3cncc(OC[C@@H](N)Cc4ccc(Br)c(F)c4)c3)cc12 | 430 nM |  |
| Cc1ccc(F)cc1C[C@H](N)COc1cncc(-c2ccc3[nH]nc(C)c3c2)c1 | 240 nM |  |
| Cc1n[nH]c2ccc(-c3cncc(OC[C@@H](N)Cc4cccc(F)c4)c3)cc12 | 260 nM |  |
| Cc1n[nH]c2ccc(-c3cncc(OC[C@@H](N)Cc4ccc(F)cc4F)c3)cc12 | 930 nM |  |
| Cc1n[nH]c2ccc(-c3cncc(OC[C@@H](N)Cc4cccc(I)c4)c3)cc12 | 810 nM |  |

| Structure (SMILES) | EC50 [1] | also measured |
| --- | --- | --- |
| Cc1n[nH]c2ccc(-c3cncc(OC[C@@H](N)Cc4ccc(F)c(F)c4F)c3)cc12 | 290 nM |  |
| Cc1n[nH]c2ccc(-c3cncc(OC[C@@H](N)Cc4cccc(Cl)c4)c3)cc12 | 450 nM |  |
| Cc1n[nH]c2ccc(-c3cncc(OC[C@@H](N)Cc4ccc(Cl)cc4)c3)cc12 | 440 nM |  |
| Cc1n[nH]c2ccc(-c3cncc(OC[C@@H](N)Cc4ccccc4Br)c3)cc12 | 340 nM |  |
| Cc1n[nH]c2ccc(-c3cncc(OC[C@@H](N)Cc4ccc(Br)cc4)c3)cc12 | 700 nM |  |
| Cc1n[nH]c2ccc(-c3cncc(OC[C@@H](N)Cc4ccc(Cl)c(F)c4)c3)cc12 | 270 nM | bioavailability [3]: 84%; AUC [4]: 2.3 µM·h; bioavailability [7]: 40%; bioavailability [8]: 38%; EC50 [9]: 6000 nM; half-life [5]: 2.1 h; Activity [6]: -1.3% |
| Cc1n[nH]c2ccc(-c3cncc(OC[C@@H](N)Cc4cccc(Cl)c4Cl)c3)cc12 | 210 nM |  |
| Cc1n[nH]c2ccc(-c3cncc(OC[C@@H](N)Cc4ccc(Cl)c(Cl)c4)c3)cc12 | 490 nM |  |
| Cc1n[nH]c2ccc(-c3cncc(OC[C@@H](N)Cc4cc(F)cc(C(F)(F)F)c4)c3)cc12 | 1380 nM |  |
| Cc1n[nH]c2ccc(-c3cncc(OC[C@@H](N)Cc4ccc(C(F)(F)F)c(F)c4)c3)cc12 | 1430 nM |  |
| Cc1n[nH]c2ccc(-c3cncc(OC[C@@H](N)Cc4ccc(F)c(Cl)c4)c3)cc12 | 670 nM |  |
| Cc1n[nH]c2ccc(-c3cncc(OC[C@@H](N)Cc4cc(Cl)cc(Cl)c4)c3)cc12 | 1000 nM |  |
| Cc1cc(F)ccc1C[C@H](N)COc1cncc(-c2ccc3[nH]nc(C)c3c2)c1 | 340 nM |  |
| Cc1n[nH]c2ccc(-c3cncc(OC[C@@H](N)Cc4ccccc4)c3)cc12 | 640 nM | half-life [10]: 1 h; bioavailability [3]: 70%; AUC [4]: 2 µM·h; half-life [5]: 1 h; Activity (Mus musculus): 31 mmHg; Activity [6]: Toxic; IC50 [11]: 13400 nM |
| Cc1n[nH]c2ccc(-c3cncc(OC[C@@H](N)Cc4cccc(OCCC5CCNCC5)c4)c3)cc12 | 2740 nM |  |
| N[C@H](COc1cncc(-c2ccc3c(c2)/C(=C/c2ccc[nH]2)C(=O)N3)c1)Cc1ccccc1 |  | half-life [10]: 0.5 h; bioavailability [3]: 0%; EC50 [9]: 354000 nM; Activity (Canis familiaris [12]): 30 mmHg |
| N[C@H](COc1cncc(-c2cc3c(Cl)n[nH]c3cn2)c1)Cc1cccc(C(F)(F)F)c1 | 1380 nM | IC50 [2]: 15 nM |
| Cc1n[nH]c2ccc(-c3cncc(OC[C@@H](N)Cc4ccccc4Cl)c3)cc12 | 380 nM |  |
| Cc1n[nH]c2ccc(-c3cncc(OC[C@@H](N)Cc4cccc(Br)c4)c3)cc12 | 370 nM |  |
| Cc1n[nH]c2ccc(-c3cncc(OC[C@@H](N)Cc4cccc(OCCN5CCOCC5)c4)c3)cc12 | 13000 nM |  |
| Cc1n[nH]c2cnc(-c3cncc(OC[C@@H](N)Cc4cccc(F)c4F)c3)cc12 | 260 nM | IC50 [2]: 7 nM |
| Cc1cc(C[C@H](N)COc2cncc(-c3ccc4[nH]nc(C)c4c3)c2)ccc1F | 1070 nM |  |
| Cc1n[nH]c2ccc(-c3cncc(OC[C@@H](N)Cc4cccc(F)c4F)c3)cc12 | 180 nM | IC50 [2]: 9 nM |
| N[C@H](COc1cncc(-c2ccc3c(c2)/C(=C\c2ccco2)C(=O)N3)c1)Cc1ccccc1 (stereo in doubt) |  | half-life [10]: 1.15 h; bioavailability [3]: 0% |
| Cc1n[nH]c2ccc(-c3cncc(OC[C@@H](N)Cc4c[nH]c5ccccc45)c3)cc12 [A-443654] |  | half-life [10]: 0.6 h; half-life [5]: 0.6 h; Activity (Canis familiaris [13]): 60 mmHg; Activity [6]: 2.4% |
